Experimental data as given in ChEMBL document CHEMBL1145381, “Synthesis and antiviral property of allophenylnorstatine-based HIV protease inhibitors incorporating D-cysteine derivatives as P2/P3 moieties” (Bioorg Med Chem Lett, 2007).

Experiments:
[1] = system: Human immunodeficiency virus 1; experiment: Antiviral activity against HIV1 3B in MT4 cells by MTT assay; format: functional, organism-based; settings: Human immunodeficiency virus 1, 3B
[2] = system: Human immunodeficiency virus 1; experiment: Antiviral activity against HIV1 NL432; format: functional, organism-based; settings: Human immunodeficiency virus 1, NL432
[3] = system: Human immunodeficiency virus 1; experiment: Antiviral activity against ritonavir-resistant HIV1 NL432; format: functional, organism-based; settings: Human immunodeficiency virus 1, NL432
[4] = system: Human immunodeficiency virus 1; experiment: Antiviral activity against ritonavir and nelfinavir-resistant HIV1 NL432; format: functional, organism-based; settings: Human immunodeficiency virus 1, NL432
[5] = system: Human immunodeficiency virus 1; experiment: Antiviral activity against nelfinavir-resistant HIV1 NL432; format: functional, organism-based; settings: Human immunodeficiency virus 1, NL432
[6] = Selectivity index, Ratio of LC50 for MT4 cells to EC50 for HIV1 3B; format: functional
[7] = Cytotoxicity against MT4 cells by MTT assay; format: cell-based; settings: human, read-out: LC50 (the source's name)
[8] = system: Human immunodeficiency virus; experiment: Inhibition of HIV protease at 1 nM
[9] = Inhibition of HIV protease; design: species or system Human immunodeficiency virus

Structure (SMILES) | EC50 [1] | EC50 [2] | EC50 [3] | EC50 [4] | EC50 [5] | Selectivity index [6] | CC50 [7] | inhibition [8] | IC50 [9]
Cc1cc(C)c(NC(CSc2ccc3ccccc3c2)C(=O)N[C@@H](Cc2ccccc2)[C@H](O)C(=O)N2CSC(C)(C)[C@H]2C(=O)NCc2ccccc2C)c(C)c1 (stereo partly specified) | 13 nM | 17 nM | 31 nM | 23 nM | 0.8 nM | 469 | 6100 nM | 67% | 
CC(=O)NC(CS(=O)(=O)c1ccc2ccccc2c1)C(=O)N[C@@H](Cc1ccccc1)[C@H](O)C(=O)N1CSC(C)(C)[C@H]1C(=O)NCc1ccccc1C (stereo partly specified) | 28 nM |  |  |  |  | 571 | 16000 nM | 96% | 0.086 nM
COc1ccc(CS(=O)(=O)C[C@@H](NC(C)=O)C(=O)N[C@@H](Cc2ccccc2)[C@H](O)C(=O)N2CSC(C)(C)[C@H]2C(=O)NCc2ccccc2C)cc1 | 102 nM |  |  |  |  | >265 | > 27000 nM | 59% | 
COc1ccc(CS(=O)(=O)C[C@@H](Nc2c(C)cc(C)cc2C)C(=O)N[C@@H](Cc2ccccc2)[C@H](O)C(=O)N2CSC(C)(C)[C@H]2C(=O)NCc2ccccc2C)cc1 | 203 nM |  |  |  |  | >128 | > 26000 nM | 66% | 
Cc1ccccc1CNC(=O)[C@H]1N(C(=O)[C@@H](O)[C@H](Cc2ccccc2)NC(=O)C(CS(=O)(=O)c2cccc3ccccc23)NS(C)(=O)=O)CSC1(C)C (stereo partly specified) |  |  |  |  |  |  |  | 97% | 0.083 nM
CC(C)c1nc(CN(C)C(=O)N[C@H](C(=O)N[C@@H](Cc2ccccc2)C[C@H](O)[C@H](Cc2ccccc2)NC(=O)OCc2cncs2)C(C)C)cs1 [RITONAVIR] | 36 nM | 80 nM | 220 nM | 162 nM |  |  |  | 90% | 
Cc1ccccc1CNC(=O)[C@H]1N(C(=O)[C@@H](O)[C@H](Cc2ccccc2)NC(=O)C(CS(=O)(=O)c2ccc3ccccc3c2)NS(C)(=O)=O)CSC1(C)C (stereo partly specified) |  |  |  |  |  |  |  | 98% | 0.09 nM
CSC[C@H](NC(=O)COc1cccc2cnccc12)C(=O)N[C@@H](Cc1ccccc1)[C@H](O)C(=O)N1CSC[C@H]1C(=O)NC(C)(C)C | 22 nM |  |  |  |  | >1363 | > 30000 nM | 40% | 
Cc1c(O)cccc1C(=O)N[C@@H](CSc1ccccc1)[C@H](O)CN1C[C@H]2CCCC[C@H]2C[C@H]1C(=O)NC(C)(C)C | 16 nM | 25 nM | 28 nM | 67 nM | 308 nM | 688 | 11000 nM | 29% | 
CC(C)(C)NC(=O)c1ccccc1C[C@H](O)[C@@H](Cc1ccccc1)NC(=O)[C@H](CS(=O)(=O)c1ccc(Cl)cc1)NS(C)(=O)=O |  |  |  |  |  |  |  |  | 0.34 nM
CC(=O)NC(CSc1cccc2ccccc12)C(=O)N[C@@H](Cc1ccccc1)[C@H](O)C(=O)N1CSC(C)(C)[C@H]1C(=O)NCc1ccccc1C (stereo partly specified) | 13 nM | 70 nM | 18 nM | 52 nM | 6.3 nM | 471 | 8000 nM | 68% | 
CC(=O)NC(CSc1ccc2ccccc2c1)C(=O)N[C@@H](Cc1ccccc1)[C@H](O)C(=O)N1CSC(C)(C)[C@H]1C(=O)NCc1ccccc1C (stereo partly specified) | 18 nM | 17 nM | 65 nM | 32 nM | 7.2 nM | 461 | 8300 nM | 53% | 
Cc1cc(C)c(NC(CSc2cccc3ccccc23)C(=O)N[C@@H](Cc2ccccc2)[C@H](O)C(=O)N2CSC(C)(C)[C@H]2C(=O)NCc2ccccc2C)c(C)c1 (stereo partly specified) | 6.4 nM | 9.3 nM | 17 nM | 13 nM | 0.67 nM | 688 | 4400 nM | 74% | 
COc1ccc(CSC[C@@H](NC(C)=O)C(=O)N[C@@H](Cc2ccccc2)[C@H](O)C(=O)N2CSC(C)(C)[C@H]2C(=O)NCc2ccccc2C)cc1 | 13 nM | 17 nM | 18 nM | 14 nM | 2.4 nM | 1308 | 17000 nM | 87% | 0.18 nM
CC(=O)NC(CS(=O)(=O)c1cccc2ccccc12)C(=O)N[C@@H](Cc1ccccc1)[C@H](O)C(=O)N1CSC(C)(C)[C@H]1C(=O)NCc1ccccc1C (stereo partly specified) | 40 nM |  |  |  |  | 400 | 16000 nM | 97% | 0.09 nM
